Data: paper PMC6514664, “Six New Coumarin Glycosides from the Aerial Parts of Gendarussa vulgaris” (Molecules, 2019)

Assays:
Eca-109 cell line = assay: MTT cytotoxicity assay, Eca-109 cell line; format: cell-based, Human; settings: Eca-109 esophageal cancer cell line, etoposide positive control
Procedure: (§1) The cytotoxic activities of all isolated compounds were evaluated by MTT assay.
(§2) According to the previous procedure, all isolated compounds were evaluated for cytotoxic activities against Eca-109, MCF-7, and HepG2 cell lines, as well as a normal human umbilical vein endothelial cell line (HUVEC) (Table 3). Etoposide was used as the positive control.
(§3) The UV spectra were measured on a Shimadzu UV-1700 spectrometer (Shimadzu Corporation, Kyoto, Japan). The IR spectra were measured on a Nicolet 10 Microscope Spectrometer (Thermo Scientific, San Jose, CA, USA). The 1D and 2D NMR spectra were recorded on Bruker-AC (E)-500 spectrometer (Bruker AM 500, Fällanden, Switzerland) using TMS as an internal standard. The HR-ESI-MS was determined on a Bruker microTOF-Q instrument (Bruker BioSpin, Rheinstetten, Germany). Column chromatography was performed with silica gel (200–300 mesh; Qingdao Marine Chemical Inc., Qingdao, China), sephadex LH-20 (GE Healthcare), ODS (50 µm; YMC Co. LTD., Kyoto, Japan.), AB-8 macroporous resin (Qinshi Science and Technology Ltd., Zhengzhou, China). Thin layer chromatography (TLC) was carried out on silica gel GF254 precoated plates (Qingdao Marine Chemical Inc., Qingdao, China), and spots were visualized under UV light. Preparative HPLC separations were performed on a SEP system (Beijing Sepuruisi scientific Co., Ltd., China) equipped with a variable-wavelength UV detector, using a YMC-Pack ODS-A column (250 × 20 mm, 5 μm). Chemical reagents for isolation were of analytical grade and purchased from Tianjin Siyou Co., Ltd., China. Biological reagents were from Sigma Company. Human heptocellular (HepG2), esophageal (Eca-109), and breast (MCF-7) cancer cell lines were from Institute of Materia Medica, Chinese Academy of Medical Sciences and Peking Union Medical College, China.

MCF-7 cell line = assay: MTT cytotoxicity assay, MCF-7 cell line; format: cell-based, Human; settings: etoposide positive control
Procedure: as §1, §2, §3

HepG2 cell line = assay: MTT cytotoxicity assay, HepG2 cell line; format: cell-based, Human; settings: HepG2 hepatocellular cancer cell line, etoposide positive control
Procedure: as §1, §2, §3

[1] = MTT cytotoxicity assay, normal HUVEC cell line; format: cell-based; settings: HUVEC (normal human umbilical vein endothelial cells)
Procedure: (§4) According to the previous procedure [22], all isolated compounds were evaluated for cytotoxic activities against Eca-109, MCF-7, and HepG2 cell lines, as well as a normal human umbilical vein endothelial cell line (HUVEC) (Table 3). Etoposide was used as the positive control.

[2] = test system: normal human umbilical vein endothelial cell line (HUVEC); assay: MTT cytotoxicity assay, normal HUVEC cell line; format: cell-based
Procedure: as §4

[3] = Homo sapiens, MCF7, MCF-7 breast cancer cell line

Compound | IC50 (Eca-109 cell line; Homo sapiens) [µM] | IC50 (MCF-7 cell line; [3]) [µM] | IC50 (HepG2 cell line; Homo sapiens) [µM] | IC50 [1] [µM] | IC50 (Eca-109 cell line) [µM] | IC50 (MCF-7 cell line; MCF-7 breast cancer cell line) [µM] | IC50 (HepG2 cell line) [µM] | IC50 [2] [µM]
COc1cc([C@@H]2c3cc4c(cc3[C@@H](O[C@@H]3O[C@@H]5CO[C@@H](C)O[C@H]5[C@H](O)[C@H]3O)[C@H]3COC(=O)[C@H]23)OCO4)cc(OC)c1O [etoposide, reference compound] | 20.5 ± 1.82 | 5.82 ± 0.49 | 1.15 ± 0.09 |  |  |  |  | 
COc1cc2ccc(=O)oc2cc1O [Compound 13, scopoletin] | 45.7 ± 3.55 | 61.6 ± 5.7 | 53.7 ± 4.09 | > 100 |  |  |  | 
COc1cc2ccc(=O)oc2cc1O[C@@H]1O[C@H](CO)[C@@H](O)[C@H](O[C@@H]2O[C@H](CO)[C@@H](O)[C@H](O)[C@H]2O)[C@H]1O [Compound 3, 7-[(3-O-β-D-glucopyranosyl-β-D-glucopyranosyl)oxy]-6-methoxycoumarin] | > 100 | > 100 | > 100 |  |  |  |  | 
COc1cc2ccc(=O)oc2c(O)c1OC [Compound 14, fraxidin] | 41.1 ± 3.78 | 59.6 ± 5.24 | > 100 | > 100 |  |  |  | 
cleomiscosin A [Compound 11] |  |  |  |  | 21 ± 1.85 | 35.3 ± 2.61 | 43.7 ± 3.97 | > 100
COc1cc2ccc(=O)oc2cc1OC [Compound 16, scoparone] | > 100 | > 100 | > 100 |  |  |  |  | 
COc1cc2ccc(=O)oc2c(O[C@@H]2O[C@H](CO)[C@@H](O)[C@H](O)[C@H]2O)c1O[C@@H]1O[C@H](CO)[C@@H](O)[C@H](O)[C@H]1O [Compound 6, 7,8-bis(β-D-glucopyranosyloxy)-6-methoxycoumarin] | > 100 | > 100 | > 100 |  |  |  |  | 
COc1cc2ccc(=O)oc2c(O)c1O [Compound 12, fraxetin] | 20.4 ± 1.94 | 28.6 ± 1.37 | 30.3 ± 1.18 | > 100 |  |  |  | 
